From US11046660B2, “Compounds and their use as PDE4 activators” (MIRONID LIMITED, priority 2016, dated 2021) come the findings set out here.

The target in test [1] is T1, full-length human PDE4B1 (Homo sapiens, UniProt Q07343).
T1 construct: stably expressed the full-length human PDE4D5, PDE4A4 and PDE4B1 long isoforms; made in house; cytosol fraction of cell lysate
The experiment in a line: PDE4B1 long form enzyme activation radio-assay (Experiment 1, Protocol A or B). It is filed as biochemical. The note with it: mean % increase in counts over basal activity. An excerpt:
(§1) Experiment 1: Identification of PDE4 Long Form Activators of the Present Invention Using Full-Length Human PDE4 Isoforms PDE4D5, PDE4A4, PDE4B1 and PDE4B2
(§2) HEK 293 cells were transfected with pDEST™ PDE4 expression vectors using Lipofectamine LTX/Plus reagent (Invitrogen) as outlined by the manufacturer and clonal isolates expanded to obtain cell lines that stably expressed the full-length human PDE4D5, PDE4A4 and PDE4B1 long isoforms and the full length human PDE4B2 short isoform. These were called the HEK-PDE4D5, HEK-PDE4A4, HEK-PDE4B1 and HEK-PDE4B2 cell lines, respectively.
(§3) HEK-PDE4D5 cells were seeded out in 100 mm plates and incubated at 37° C. in an atmosphere of 5% CO2, 95% air. Cell lysates were prepared using KHEM buffer [50 mM KCl, 10 mM EGTA, 50 mM HEPES (pH 7.2), 1.92 mM MgCl2].
(§4) To prepare the cell lysates, the 100 mm plates containing the cells were placed on ice and washed with ice-cold PBS (phosphate buffered saline, pH 7.4). KHEM buffer (500 μl) was added to the cells. Cells were then scraped off the plate and triturated using a needle (BD Microlance™ 0.8, 40 mm). The lysed cells were then centrifuged at 2000 rpm for 10 minutes to remove cell debris and the supernatant (cell lysate containing recombinant PDE4D5) was transferred to a fresh tube and kept on ice.
(§5) The cell lysate containing recombinant PDE4D5 was transferred into a centrifuge tube and placed into an ultracentrifuge (BECKMAN COULTER) and spun at high speed (100,000 g) for 30 minutes at 4° C. The cytosol fraction was then collected and its protein amount determined using a BCA protein assay.
(§6) PDE assays were performed using a final concentration of 10 mM Tris/5 mM MgCl2 and 1 μM [^3H]-cAMP (Perkin Elmer) plus PDE4D5 cell lysate cytosol fraction, containing over-expressed PDE4D5, with and without test compound. Incubations were performed at 30° C. for 5 minutes. The samples were then placed in a boiling water bath for 2 minutes to denature the PDE enzyme, and returned to ice. Samples were allowed to cool for 10 min after which snake venom 5′-nucleotidase (25 μl, 1 mg/ml; Sigma) was added. The tubes were vortexed and incubated in a water bath at 30° C. for 10 minutes, to attain conversion of [^3H]-5′-AMP to [^3H]-adenosine, and then placed on ice. Dowex ion exchange resin (Sigma) prepared as a 1:1 Dowex: water stock was thoroughly re-suspended and diluted 2:1 with ethanol. The resulting Dowex suspension (0.4 ml) was added to each tube. Tubes were vortexed to mix and then incubated on ice for at least 15 minutes before a final vortex. The Dowex resin was pelleted by centrifugation at 13,000 g at 4° C. for 3 minutes and 150 μl of the supernatant was removed to an Eppendorf tube containing 1 ml of ScintiSafe3 scintillation fluid (Fisher). Tubes were vortexed thoroughly to mix and the recovered [^3H]-adenosine was quantified by measuring counts over 1 minute in a scintillation counter.
(§7) The % increase in counts in the presence of test compound at a particular concentration indicates the % increase in enzyme activity at that concentration.
(§8) PDE assays were performed in thin walled V-bottomed 96-well plates. The assays were performed at a final concentration of 10 mM Tris/5 mM MgCl2 plus PDE4D5 cell lysate cytosol fraction, containing over-expressed PDE4D5, with and without test compound. The lysate/compound mix were incubated together for 15 min at room temperature on an orbital shaker prior to addition of [^3H] cAMP (final concentration 1 μM [^3H] cAMP; Perkin Elmer) to a final volume of 50 μl per reaction. The reactions were then incubated for 10 minutes at 30° C., terminated by heating for 2 min at 95° C. and allowed to cool. Snake venom (12.5 μl of 1 mg/ml; Crotalus atrox, Sigma) was then added and the plates were agitated and incubated for a further 15 minutes at 30° C. […]

Test [2] addresses T2, full-length human PDE4B2 (Homo sapiens, UniProt Q07343).
T2 construct: and the full length human PDE4B2 short isoform; made in house; cytosol fraction of cell lysate
The test can be described thus: PDE4B2 short form enzyme activation radio-assay (Experiment 1, Protocol A or B). It is filed as biochemical. The note with it: 30 μM, mean % increase in counts over basal activity.
Source text: as §1, §2, §3, §4, §5, §6, §7, §8

For test [3], the target named is T3, full-length human PDE4D5 (Homo sapiens, UniProt Q08499).
T3 construct: stably expressed the full-length human PDE4D5, PDE4A4 and PDE4B1 long isoforms; made in house; cytosol fraction of cell lysate
T3 sequence (Q08499 1-745 isoform Q08499-6): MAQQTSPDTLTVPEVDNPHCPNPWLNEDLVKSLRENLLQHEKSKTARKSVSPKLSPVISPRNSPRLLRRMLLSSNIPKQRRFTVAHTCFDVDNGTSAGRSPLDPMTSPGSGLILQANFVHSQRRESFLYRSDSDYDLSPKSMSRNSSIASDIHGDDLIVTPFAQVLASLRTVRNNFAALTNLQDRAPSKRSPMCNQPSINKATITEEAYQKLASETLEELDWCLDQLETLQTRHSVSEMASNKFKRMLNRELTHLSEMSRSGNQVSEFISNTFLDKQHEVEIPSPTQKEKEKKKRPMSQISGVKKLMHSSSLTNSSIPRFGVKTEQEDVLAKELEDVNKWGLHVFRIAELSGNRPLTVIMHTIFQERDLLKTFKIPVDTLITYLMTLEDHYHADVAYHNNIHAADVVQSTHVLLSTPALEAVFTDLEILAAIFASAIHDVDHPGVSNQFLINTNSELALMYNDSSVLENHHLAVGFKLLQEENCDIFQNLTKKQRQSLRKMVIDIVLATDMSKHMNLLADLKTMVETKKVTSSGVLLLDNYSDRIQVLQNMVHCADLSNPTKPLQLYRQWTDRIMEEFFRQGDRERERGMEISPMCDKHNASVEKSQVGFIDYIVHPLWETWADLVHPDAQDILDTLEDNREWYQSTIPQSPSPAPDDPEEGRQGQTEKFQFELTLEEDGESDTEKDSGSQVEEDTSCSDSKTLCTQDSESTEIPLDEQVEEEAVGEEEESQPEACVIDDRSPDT
The test can be described thus: PDE4D5 long form enzyme activation radio-assay (Experiment 1, Protocol A or B). Format: biochemical. The note with it: 30 μM, mean % increase in counts over basal activity.
Source text: as §1, §2, §3, §4, §5, §6, §7, §8

For test [4], the system named is MDCK cells. The experiment in a line: Inhibition of in vitro cyst formation in 3D MDCK culture, PGE2-stimulated (Experiment 3, Protocol D). Format: cell-based, canine. The note with it: 300 nM PGE2-stimulated, FIG. 3. An excerpt: In this study, the well-established three-dimensional (3D) MDCK cell model is used to investigate the effects of PDE4 long form activators on the formation of kidney cysts and evaluate their potential in the treatment of polycystic kidney diseases. 3D cysts are generated based on the method of Mao et al. (Mao, Z., Streets, A. J., Ong, A. C. M. Am. J. Physiol. Renal Physiol. 300(6): F1375-F1384, 2011), with some modifications.
Type 1 collagen (Invitrogen) is first prepared on ice by neutralising an acidic stock solution (3 mg/ml) with 17 mM NaOH and diluting it to 1 mg/ml with DMEM, supplemented with 2% (v/v) FBS, 2 mM L-glutamine, 1,000 U penicillin and 1,000 μg streptomycin (DMEM-2% FBS). […]
Phase-contrast images are obtained on the Motic microscope (×4 magnification). 8 images are taken per condition and the cyst diameter measured (up to 150 cyst measurements per well). Cyst spheroid volume is calculated using the formula 4/3πr^3 where r is the radius of the spheroid. A mean cyst volume is then calculated per well. The mean cyst volume and standard deviation between the duplicate wells is then calculated and expressed as a % Cyst Volume compared to the vehicle only (DMSO+300 nM PGE2) control wells.

Test [5] concerns MDCK cells. The experiment in a line: Reduction of intracellular cAMP levels in forskolin-stimulated MDCK cells (Experiment 2). The note with it: compound 10 μM for 10 min prior to forskolin 10 μM for 2 min; FIG. 2. Format: cell-based, canine. As for the experimental part:
MDCK cells were seeded at 100,000 cells per well, and left to adhere overnight. The cells were then treated with the test compound (10 μM) for 10 minutes, prior to stimulation with forskolin (10 μM, Sigma) for 2 minutes. Media was aspirated, and hydrochloric acid (0.1M) was added to lyse the cells. The cAMP assay (Enzo Life Sciences) was performed according to the manufacturer's instructions.
For orientation: Changes in cAMP serve as a functional read-out for many G protein-coupled receptors.

T2 sequence (Q07343 1-564 isoform Q07343-2): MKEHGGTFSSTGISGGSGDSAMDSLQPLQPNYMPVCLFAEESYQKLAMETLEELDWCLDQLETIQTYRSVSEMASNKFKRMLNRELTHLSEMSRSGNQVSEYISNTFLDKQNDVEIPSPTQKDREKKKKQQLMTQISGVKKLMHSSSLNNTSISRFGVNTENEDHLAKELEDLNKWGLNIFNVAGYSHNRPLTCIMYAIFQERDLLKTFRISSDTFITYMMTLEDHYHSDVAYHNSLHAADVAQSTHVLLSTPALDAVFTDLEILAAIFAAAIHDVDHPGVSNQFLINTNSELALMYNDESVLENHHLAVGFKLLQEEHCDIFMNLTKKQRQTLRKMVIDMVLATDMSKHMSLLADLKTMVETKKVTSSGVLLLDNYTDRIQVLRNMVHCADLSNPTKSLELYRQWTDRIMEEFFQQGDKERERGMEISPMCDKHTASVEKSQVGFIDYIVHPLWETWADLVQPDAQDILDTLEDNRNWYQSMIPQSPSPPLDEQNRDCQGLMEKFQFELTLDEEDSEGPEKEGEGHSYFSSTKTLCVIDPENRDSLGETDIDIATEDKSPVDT
T1 sequence (Q07343 whole entry, canonical isoform): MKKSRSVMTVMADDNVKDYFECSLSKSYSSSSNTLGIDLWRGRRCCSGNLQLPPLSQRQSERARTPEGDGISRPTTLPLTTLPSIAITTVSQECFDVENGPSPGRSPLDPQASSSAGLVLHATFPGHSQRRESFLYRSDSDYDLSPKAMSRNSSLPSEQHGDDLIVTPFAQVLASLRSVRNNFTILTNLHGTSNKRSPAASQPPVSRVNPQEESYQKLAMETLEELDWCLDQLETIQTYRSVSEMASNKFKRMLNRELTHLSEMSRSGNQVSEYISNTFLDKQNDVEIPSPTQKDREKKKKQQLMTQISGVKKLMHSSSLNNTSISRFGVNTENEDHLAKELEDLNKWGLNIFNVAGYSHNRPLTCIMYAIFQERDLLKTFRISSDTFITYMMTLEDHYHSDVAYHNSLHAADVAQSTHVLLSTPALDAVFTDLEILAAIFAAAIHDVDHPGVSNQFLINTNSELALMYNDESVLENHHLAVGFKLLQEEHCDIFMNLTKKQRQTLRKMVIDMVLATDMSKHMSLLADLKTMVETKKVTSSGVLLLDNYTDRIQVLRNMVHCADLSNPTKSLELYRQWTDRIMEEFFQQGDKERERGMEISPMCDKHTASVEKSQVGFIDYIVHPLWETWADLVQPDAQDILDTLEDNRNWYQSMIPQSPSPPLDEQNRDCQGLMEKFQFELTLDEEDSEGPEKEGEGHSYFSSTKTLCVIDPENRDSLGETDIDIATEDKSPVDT

Take `CNC(=O)c1nc(-c2ccc(Cl)c(F)c2)nn1CC(=O)NCc1cccc(F)c1` [Example 10, 3-(4-chloro-3-fluorophenyl)-1-{[(3-fluorobenzyl)carbamoyl]methyl}-N-methyl-1H-1,2,4-triazole-5-carboxamide]: the activation at 30 µM in test [1] (Protocol B) was found to be 85.1%; in test [2] (Protocol B) it was 23.3%. For the compound `CCOC(=O)c1nc(-c2ccc(Cl)c(F)c2)nn1CC(=O)NCc1cccc(OC)c1` [Example 5, Ethyl 3-(4-chloro-3-fluorophenyl)-1-{[(3-methoxybenzyl)carbamoyl]methyl}-1H-1,2,4-triazole-5-carboxylate], in test [1] (Protocol B), the activation at 30 µM stood at 44%. With `COCCNC(=O)c1nc(-c2ccc(Cl)c(F)c2)nn1CC(=O)NCc1cccc(F)c1` [Example 20, 3-(4-chloro-3-fluorophenyl)-1-{[(3-fluorobenzyl)carbamoyl]methyl}-N-(2-methoxyethyl)-1H-1,2,4-triazole-5-carboxamide], the activation at 30 µM in test [2] (Protocol B) was -22.4%; in test [3] (Protocol B), 63.3%. Take `COc1cccc(CNC(=O)Cn2nc(-c3ccc(Cl)c(F)c3)nc2C(N)=O)c1` [Example 9, 3-(4-chloro-3-fluorophenyl)-1-{[(3-methoxybenzyl)carbamoyl]methyl}-1H-1,2,4-triazole-5-carboxamide]: the activation at 30 µM in test [1] (Protocol A) was 58.5%. With `CNC(=O)c1cc(-c2ccc(Cl)c(F)c2)nn1CC(=O)NCc1cccc(OC)c1` [Example 25, 3-(4-chloro-3-fluorophenyl)-1-{[(3-methoxybenzyl)carbamoyl]methyl}-N-methyl-1H-pyrazole-5-carboxamide], the activation at 30 µM stood at 21% in test [2] (Protocol B) and 39.5% in test [3] (Protocol B).

As to `CNC(=O)c1nc(-c2ccc(Cl)c(F)c2)nn1CC(=O)NCc1ccc2[nH]ncc2c1` [Example 28, 3-(4-chloro-3-fluorophenyl)-1-({[(1H-indazol-5-yl)methyl]carbamoyl}methyl)-N-methyl-1H-1,2,4-triazole-5-carboxamide], the “cyst formation in 3D culture of MDCK cells (in words)” value in test [4] is listed as “inhibition of cyst formation”. Further, the activation at 30 µM in test [2] (Protocol B) is -7.9%; in test [3] (Protocol B), 101%.

Turning to `CN(C)C(=O)c1nc(-c2ccc(Cl)c(F)c2)nn1CC(=O)NCc1cccc(F)c1` [Example 11, 3-(4-chloro-3-fluorophenyl)-1-{[(3-fluorobenzyl)carbamoyl]methyl}-N,N-dimethyl-1H-1,2,4-triazole-5-carboxamide], the activation at 30 µM in test [1] (Protocol A) came out at 84.1%.

With `CCOC(=O)c1cc(-c2ccc(Cl)cc2)nn1CC(=O)NCc1cccc(OC)c1` [Example 27, Ethyl 3-(4-chlorophenyl)-1-{[(3-methoxybenzyl)carbamoyl]methyl}-1H-pyrazole-5-carboxylate], the activation at 30 µM in test [2] (Protocol B) turned out to be 7.6%; in test [3] (Protocol B) it was 75.1%. With `COc1cccc(CNC(=O)Cn2nc(-c3ccc(Cl)c(F)c3)nc2C#N)c1` [Example 16, 2-[3-(4-chloro-3-fluorophenyl)-5-cyano-1H-1,2,4-triazol-1-yl]-N-(3-methoxybenzyl)acetamide], the activation at 30 µM in test [1] (Protocol B) was determined as 52.2%. On the same count and under the same terms, the same measure for `CCOC(=O)c1nc(-c2ccc(Cl)c(F)c2)nn1CC(=O)NCc1cccc(F)c1` [Example 4, Ethyl 3-(4-chloro-3-fluorophenyl)-1-{[(3-fluorobenzyl)carbamoyl]methyl}-1H-1,2,4-triazole-5-carboxylate]: 80.5%. On to `NC(=O)c1nc(-c2ccc(Cl)c(F)c2)nn1CC(=O)NCc1cccc(F)c1` [Example 8, 3-(4-chloro-3-fluorophenyl)-1-{[(3-fluorobenzyl)carbamoyl]methyl}-1H-1,2,4-triazole-5-carboxamide], for which the activation at 30 µM in test [1] (Protocol A) stood at 50.9%. Take `COC(=O)c1nc(-c2ccc(Cl)c(F)c2)nn1CC(=O)NCc1cccc(F)c1` [Example 1, Methyl 3-(4-chloro-3-fluorophenyl)-1-{[(3-fluorobenzyl)carbamoyl]methyl}-1H-1,2,4-triazole-5-carboxylate]: the activation at 30 µM in test [2] (Protocol A) was 19.5%; in test [3] (Protocol A) it was 105%. The “intracellular cAMP levels in MDCK cells (in words)” value in test [5] was “reduction in intracellular cAMP levels”. As for `CNC(=O)c1nc(-c2ccc(Cl)c(F)c2)nn1CC(=O)NCc1cccc(OC)c1` [Example 12, 3-(4-chloro-3-fluorophenyl)-1-{[(3-methoxybenzyl)carbamoyl]methyl}-N-methyl-1H-1,2,4-triazole-5-carboxamide], the activation at 30 µM in test [1] (Protocol B) stood at 89.2%.
